Experimental data published in PMC8700683, “A Novel Neutral and Mesophilic β-Glucosidase from Coral Microorganisms for Efficient Preparation of Gentiooligosaccharides” (Foods, 2021).

Experiments:
Blg163 [1] = system: T1, Blg163; assay: p-nitrophenol release, absorbance at […] nm; type: biochemical, uncultured bacterium (coral microbial metagenome); conditions: citrate buffer, pH 7.0, 30 °C, 5 min
T1 construct: full-length ORF 1341 bp, 447 residues (Met1 to Ser447), GH1; pEASY-E1 vector, His-tag (Ni-NTA) apparently kept; expressed in E. coli BL21(DE3) pLysS; best hits Rhodobacteraceae bacterium NVK46632.1 (homologue)

Blg163 [2] = system: T1, Blg163; assay: hydrolysis kinetics, […] substrate; type: biochemical, uncultured bacterium (coral microbial metagenome); conditions: citrate buffer, pH 7.0, 30 °C, 5 min

Row | Km (Blg163 [1]) [µM] | Km (Blg163 [2]) [µM] | SMILES
1 | 320 | – | O=[N+]([O-])c1ccc(O[C@@H]2O[C@H](CO)[C@@H](O)[C@H](O)[C@H]2O)cc1 [p-Nitrophenyl-β-D-glucopyranoside]
2 | – | 720 | OC[C@H]1O[C@@H](OC[C@H]2OC(O)[C@H](O)[C@@H](O)[C@@H]2O)[C@H](O)[C@@H](O)[C@@H]1O (stereo partly drawn) [gentiobiose]
3 | – | 450 | OC[C@H]1O[C@@H](O[C@H]2[C@H](O)[C@@H](O)C(O)O[C@@H]2CO)[C@H](O)[C@@H](O)[C@@H]1O (stereo partly drawn) [cellobiose]
